Reference: patent US4732970A, “Antitumor amino acid and peptide derivatives of 1,4-bis(aminoalkyl and hydroxy-aminoalkyl)amino)-5,8-dihydroxyanthraquinones” (priority 1986, dated 1988)

System: lymphocytic leukemia P388
Experiment: Lymphocytic Leukemia P388 Test
Assay type: in vivo, BDF1 mice
Conditions: for Median Survival: BDF1 mice; for T/C × 100 (%): ratio of survival time treated/control
How it was run: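 BDF1 mice (5–6 per group) were inoculated i.p. with 10^6 P388 cells, then dosed i.p. on days 1, 5 and 9 at various doses. Survival was followed for 60 days, and median survival time and the treated/control (T/C) survival ratio were calculated.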

[1] = dose 0.75 mg/kg intraperitoneally on days 1, 5 and 9
[2] = dose 1.5 mg/kg intraperitoneally on days 1, 5 and 9
[3] = dose 3 mg/kg intraperitoneally on days 1, 5 and 9

Row | Compound | Median Survival [1] | T/C × 100 (%) [1] | Median Survival [2] | T/C × 100 (%) [2] | Median Survival [3] | T/C × 100 (%) [3]
1 | CC(C)C[C@H](NC(=O)[C@H](C)NC(=O)[C@H](CC(=O)OC(C)(C)C)NC(=O)OCC1c2ccccc2-c2ccccc21)C(=O)NCCNc1ccc(NCCNC(=O)[C@H](CC(C)C)NC(=O)[C@H](C)NC(=O)[C@H](CC(=O)OC(C)(C)C)NC(=O)OCC2c3ccccc3-c3ccccc32)c2c1C(=O)c1c(O)ccc(O)c1C2=O [Example 81, N,N'-[(9,10-Dihydro-5,8-dihydroxy-9,10-dioxo-1,4-anthracenediyl)bis(imino-2,1-ethanediyl)]bis[N-[(9H-fluoren-9-ylmethoxy)carbonyl]-L-α-aspartyl-L-alanyl-L-leucinamide]bis(1,1-dimethylethyl)ester] | 16.0 days | 145% | 18.5 days | 168% | 19.0 days | 173%
2 | CC(C)C[C@H](NC(=O)[C@H](C)NC(=O)[C@@H](N)CC(=O)OC(C)(C)C)C(=O)NCCNc1ccc(NCCNC(=O)[C@H](CC(C)C)NC(=O)[C@H](C)NC(=O)[C@@H](N)CC(=O)OC(C)(C)C)c2c1C(=O)c1c(O)ccc(O)c1C2=O [Example 82, N,N'-[(9,10-Dihydro-5,8-dihydroxy-9,10-dioxo-1,4-anthracenediyl)bis(imino-2,1-ethanediyl)]bis[L-α-aspartyl-L-alanyl-L-leucinamide]bis(1,1-dimethylethyl)ester] | 21.0 days | 191% | 19.0 days | 173% | 19.0 days | 173%
3 | C[C@H](NC(=O)[C@H](C)NC(=O)[C@@H](N)CC(=O)O)C(=O)NCCNc1ccc(NCCNC(=O)[C@H](C)NC(=O)[C@H](C)NC(=O)[C@@H](N)CC(=O)O)c2c1C(=O)c1c(O)ccc(O)c1C2=O.O=C(O)C(F)(F)F.O=C(O)C(F)(F)F [Example 83] | 22.0 days | 220% | 22.5 days | 225% | 38.5 days | 385%
4 | CC(C)C[C@H](NC(=O)[C@H](C)NC(=O)[C@@H](N)CC(=O)O)C(=O)NCCNc1ccc(NCCNC(=O)[C@H](CC(C)C)NC(=O)[C@H](C)NC(=O)[C@@H](N)CC(=O)O)c2c1C(=O)c1c(O)ccc(O)c1C2=O.O=C(O)C(F)(F)F.O=C(O)C(F)(F)F [Example 84, N,N'-[(9,10-Dihydro-5,8-dihydroxy-9,10-dioxo-1,4-anthracenediyl)bis(imino-2,1-ethanediyl)]bis[L-α-aspartyl-L-alanyl-L-leucinamide]bis(trifluoroacetate)] | 24.0 days | 240% | 21.5 days | 215% | 28.0 days | 280%
5 | Br.Br.N=C(N)NCCC[C@H](N)C(=O)NCCNc1ccc(NCCNC(=O)[C@@H](N)CCCNC(=N)N)c2c1C(=O)c1c(O)ccc(O)c1C2=O [Example 86, N,N'-[(9,10-Dihydro-5,8-dihydroxy-9,10-dioxo-1,4-anthracenediyl)bis(imino-2,1-ethanediyl)]-L-arginine, dihydrobromide] | 22.0 days | 200% | 27.0 days | 245% | 34.5 days | 314%
6 | Br.Br.C[C@H](NCCNc1ccc(NCCN[C@@H](C)C(=O)N[C@@H](CCCNC(=N)N)C(=O)OC(C)(C)C)c2c1C(=O)c1c(O)ccc(O)c1C2=O)C(=O)N[C@@H](CCCNC(=N)N)C(=O)OC(C)(C)C [Example 87, N,N'-[(9,10-Dihydro-5,8-dihydroxy-9,10-dioxo-1,4-anthracenediyl)bis(imino-2,-ethanediyl)]bis[L-alanyl-L-arginine]bis(1,1-dimethylethyl)ester, dihydrobromide] | 17.0 days | 170% | 19.0 days | 190% | 20.5 days | 205%
7 | Br.Br.Br.Br.C[C@H](N)C(=O)N[C@@H](CCCNC(=N)N)C(=O)NCCNc1ccc(NCCNC(=O)[C@H](CCCNC(=N)N)NC(=O)[C@H](C)N)c2c1C(=O)c1c(O)ccc(O)c1C2=O [Example 88, N,N'-[(9,10-Dihydro-5,8-dihydroxy-9,10-dioxo-1,4-anthracenediyl)bis(imino-2,1-ethanediyl)]bis-[L-alanyl-L-argininamide]tetrahydrobromide] | 22.5 days | 225% | 33.0 days | 330% | 44.0 days | 440%
8 | Br.Br.C[C@H](NC(=O)OC(C)(C)C)C(=O)N[C@@H](C)C(=O)N[C@@H](CCCNC(=N)N)C(=O)NCCNc1ccc(NCCNC(=O)[C@H](CCCNC(=N)N)NC(=O)[C@H](C)NC(=O)[C@H](C)NC(=O)OC(C)(C)C)c2c1C(=O)c1c(O)ccc(O)c1C2=O [Example 89, N,N'-[(9,10-Dihydro-5 8-dihydroxy-9,10-dioxo-1,4-anthracenediyl)bis(imino-2,1-ethanediyl)]bis[N-[(1,1-dimethylethoxy)carbonyl]-L-alanyl-L-alanyl-L-argininamide]-dihydrobromide] | 17.0 days | 155% | 17.5 days | 159% | 24.5 days | 223%
9 | Br.Br.C[C@H](N)C(=O)N[C@@H](C)C(=O)N[C@@H](CCCNC(=N)N)C(=O)NCCNc1ccc(NCCNC(=O)[C@H](CCCNC(=N)N)NC(=O)[C@H](C)NC(=O)[C@H](C)N)c2c1C(=O)c1c(O)ccc(O)c1C2=O.O=C(O)C(F)(F)F.O=C(O)C(F)(F)F [Example 90, N,N'-[(9,10-Dihydro-5,8-dihydroxy-9,10-dioxo-1,4-anthracenediyl)bis(imino-2,1-ethanediyl)]bis[L-alanyl-L-alanyl-L-argininamide], dihydrobromide, bis(trifluoroacetate)] | 23.5 days | 214% | 23.5 days | 214% | 19.5 days | 177%
10 | Br.Br.C[C@H](NC(=O)[C@H](CO)NC(=O)[C@H](CCCNC(=N)N)NC(=O)OCc1ccccc1)C(=O)NCCNc1ccc(NCCNC(=O)[C@H](C)NC(=O)[C@H](CO)NC(=O)[C@H](CCCNC(=N)N)NC(=O)OCc2ccccc2)c2c1C(=O)c1c(O)ccc(O)c1C2=O [Example 93, N,N'-[(9,10-Dihydro-5,8-dihydroxy-9,10-dioxo-1,4-anthracencdiyl)bis(imino-2,1-ethanediyl)][L-alanyl-L-seryl-carbobenzyloxy-L-argininamide]dihydrobromide] | 22.0 days | 200% | 22.5 days | 205% | 24.5 days | 223%
11 | Br.Br.Br.Br.C[C@H](NC(=O)[C@H](CO)NC(=O)[C@@H](N)CCCNC(=N)N)C(=O)NCCNc1ccc(NCCNC(=O)[C@H](C)NC(=O)[C@H](CO)NC(=O)[C@@H](N)CCCNC(=N)N)c2c1C(=O)c1c(O)ccc(O)c1C2=O [Example 94, N,N'-[(9,10-Dihydro-5,8-dihydroxy-9,10-dioxo-1,4-anthracenediyl)bis(imino-2,1-ethanediyl)]bis[L-arginyl-L-seryl-L-alaninamide], tetrahydrobromide] | 21.5 days | 195% | 21.0 days | 191% | 34.5 days | 314%
12 | N,N'-[(9,10-Dihydro-5,8-dihydroxy-9,10-dioxo-1,4-anthracenediyl)bis(imino-2,1-ethanediyl)]bis[L-alanyl-L-alanine]bis(trifluoroacetate) [Example 72] | 20.0 days | 190% | 20.0 days | 190% | 23.0 days | 219%
13 | N,N'-[(9,10-Dihydro-5,8-dihydroxy-9,10-oxo-1,4-anthracenediyl)bis(imino-2,1-ethanediyl) ]bis[L-arginine(phenylmethyl)]ester, dihydrobromide [Example 85] | 21.5 days | 179% | 21.0 days | 175% | 22.5 days | 188%
14 | [S-(R*,R*)][(9,10-Dihydro-5,8-dihydroxy-9,10-dioxo-1,4-anthracenediyl)bis[1-[3-[[imino(nitroamino)methyl]amino]propyl]-2-oxo-2,1-ethanediyl]]bis-carbamic acid, bis(phenylmethyl)ester [Example 91] | 15.5 days | 141% | 16.5 days | 150% | 18.0 days | 164%
15 | [S-(R*,R*)][(9,10-Dihydro-5,8-dihydroxy-9,10-dioxo-1,4-anthracenediyl)bis[imino-2,1-ethanediylimino[1-[3-[[imino[[(phenylmethoxy)carbonyl]amino]methyl][(phenylmethoxy)carbonyl]propyl]-2-oxo-2,1-ethanediyl]]]carbamic acid, bis(phenylmethyl)ester [Example 95] | 14.0 days | 127% | 16.0 days | 145% | 16.0 days | 145%
